Data reported in patent US20130252843A1, “METHOD OF MAKING AND USING FLUORESCENT-TAGGED NANOPARTICLES AND MICROARRAYS” (THE STATE OF OREGON ACTING BY AND THROUGH THE STATE BOARD …, priority 2010, published 2013).
Several values for one entry are separate records, joined by “and”; a condition that tells them apart may be missing. Identical values can stand only once. Like-named read-outs stand apart in the source and are kept apart here.

Legend:
[1] = biological target: SBA (Soybean Agglutinin) (Glycine max, UniProt P05046); settings: free glycan; cited from earlier work
[2] = biological target: T1, PNA (Arachis hypogaea, UniProt P02872); settings: free glycan; cited from earlier work
T1 construct: purchased Sigma-Aldrich
T1 sequence (P02872 24-273): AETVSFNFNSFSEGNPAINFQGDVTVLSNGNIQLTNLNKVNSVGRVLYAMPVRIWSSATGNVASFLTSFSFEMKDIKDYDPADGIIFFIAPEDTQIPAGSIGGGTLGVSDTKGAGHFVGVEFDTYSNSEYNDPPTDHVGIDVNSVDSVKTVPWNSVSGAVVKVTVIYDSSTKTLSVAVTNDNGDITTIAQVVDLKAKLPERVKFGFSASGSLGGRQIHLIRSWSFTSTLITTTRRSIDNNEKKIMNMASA

[3] = biological target: DBA (Dolichos Biflorus Agglutinin) (Vigna unguiculata subsp. cylindrica, UniProt P05045); settings: free glycan; cited from earlier work
[4] = biological target: RCA (Ricinus Communis Agglutinin I) (Ricinus communis, UniProt P06750); settings: free glycan; cited from earlier work
[5] = biological target: T2, Con A (Canavalia ensiformis, UniProt P02866); experiment: Protein bio assay, SPR shift of sugar coupled Au-PFPA nanoparticles with lectin; format: binding; set-up: unit: nm; settings: replicates
T2 construct: purchased Sigma-Aldrich Type IV (catalogue number not given)
Excerpt: (§1) In other particular embodiments, the interactions between one or more targets and one or more PHPA-derived nanoparticle probes can be measured using absorbance spectroscopy. Particular embodiments concern using surface plasmon resonance. In these embodiments, both the λmax produced before the PHPA-derived nanoparticle probe interacts with the target and the λmax produced after the PHPA-derived nanoparticle probe interacts with the target are detected. The change in λmax provides a numerical number that can be used in further statistical analysis.
The unspecific binding sites of Sugar coupled Au-PFPA was inhibited by the addition of BSA (3% BSA, 0.2% Tween in PBS buffer pH 7). The 1,500 μL of sugar-coupled Au-PFPA was centrifuged at 9,000 rpm for 8 minutes and was redissolved in a PBS buffer with 3% BSA (0.2% Tween). The volume was made up to 900 μL. The resultant solution was incubated at room temperature with gentle shaking for 1 hour. The BSA blocked Au-PFPA-sugar nanoparticle was centrifuged at 10,000 rpm for 6 minutes and the excess BSA was removed. To a volume of 1,500 μL solution 10 mg/mL lectin (Con A—Concanavalin A, Canavalia ensiformis jack bean protein, SBA—soybean agglutinin, Glycine max and PNA—Peanut Agglutinin, Arachis hypogaea all purchased from Sigma Aldrich) was introduced the resultant solution was incubated at room temperature while gently shaking. […]

[6] = biological target: T1, PNA; experiment: as above; format: binding; set-up: unit: nm; settings: replicates
Excerpt: as §1
(§2) The unspecific binding sites of Sugar coupled Au-PFPA was inhibited by the addition of BSA (3% BSA, 0.2% Tween in PBS buffer pH 7). The 1,500 μL of sugar-coupled Au-PFPA was centrifuged at 9,000 rpm for 8 minutes and was redissolved in a PBS buffer with 3% BSA (0.2% Tween). The volume was made up to 900 μL. The resultant solution was incubated at room temperature with gentle shaking for 1 hour. The BSA blocked Au-PFPA-sugar nanoparticle was centrifuged at 10,000 rpm for 6 minutes and the excess BSA was removed. To a volume of 1,500 μL solution 10 mg/mL lectin (Con A—Concanavalin A, Canavalia ensiformis jack bean protein, SBA—soybean agglutinin, Glycine max and PNA—Peanut Agglutinin, Arachis hypogaea all purchased from Sigma Aldrich) was introduced the resultant solution was incubated at room temperature while gently shaking.
(§3) A training matrix was created using three lectins (Con A, SBA and PNA) and four types of sugar-bound Au-PFPA nanoparticles. Each assay was repeated three times, providing a 3×4×3 training matrix (Table 10). The factor scores (Zi from equation (1) or Fi) calculated for the training matrix from XLSTAT® were F1=98.10% and F2=1.90%.
(§4) A study was also done to identify different lectins using specific binding interaction between lectins and sugars (Wang, X.; Ramstrom, O.; Yan, M. J. Mat. Chem. 2009, 19, 8944-8949). The lectins used in the study were Con A, SBA, PNA and GSII. The sugars used were D-Mannose, D-Glucose, D-Galactose, α-1,4-mannobiose, α-1,3-galactobiose and N-acetyl-D-glucosamine. These sugars are known to have specific binding to lectins (Jurs, P. Science 1986, 232, 1219-1224). The training matrix was created as four lectins×six sugars×five replicates (Table 12). […] The Wilk's lamda (A) value for the training set was 0.000. […] The 95% confidence ellipses show clear spatial separation, and no overlap between the ellipses is visible. Unlike the weak binding interactions studied in before using non-specific binding sugars, the strong binding sugars show very good class separation.

[7] = biological target: T3, SBA (Glycine max, UniProt P05046); experiment: as above; format: binding; set-up: unit: nm; settings: replicates
T3 construct: purchased Sigma-Aldrich
Excerpt: as §1, §2, §3, §4

[8] = biological target: blindly prepared lectins (U1-U7) (Arachis hypogaea, UniProt P02872); format: binding; set-up: unit not given here; settings: unknown protein u5 (predicted class PNA)
Description: as §2
(§5) To test the training matrix and its strength to identify individual lectins, seven blindly prepared lectins (U1-U7) were used as test samples. The procedure for each test sample is the same as that used for the known samples used in the training matrix. The final SPR shift (Table 14) was used in the training matrix (Table 10) for prediction.

[9] = biological target: blindly prepared lectins (U1-U7) (Canavalia ensiformis, UniProt P02866); format: binding; set-up: unit not given here
Description: as §2, §5

[10] = biological target: blindly prepared lectins (U1-U7) (Glycine max, UniProt P05046); format: binding; set-up: unit not given here
Description: as §2, §5

[11] = biological target: T4, PNA, Peanut Agglutinin (Arachis hypogaea, UniProt P02872); settings: cited from earlier work
T4 construct: purchased Sigma-Aldrich

[12] = biological target: BS-I, Bandeiraea simplicifolia lectin; settings: cited from earlier work
[13] = biological target: DBA, Dolichos Biflorus Agglutinin; settings: cited from earlier work
[14] = biological target: RCA, Ricinus Communis Agglutinin I; settings: cited from earlier work
[15] = UV irradiation photostability; format: physicochemical; settings: 450-W medium-pressure Hg lamp, 10 minutes; of the original value
Description: To confirm that the entrapped FITC would withstand the UV irradiation conditions used for a subsequent photocoupling reaction, a solution containing FITC-doped SNPs was irradiated with a 450-W medium-pressure Hg lamp for 10 minutes. […] See, FIG. 6. On the other hand, when the […] was irradiated under the same conditions, the fluorescent intensity was reduced to about 50% of the original value. See, FIG. 7.

[16] = biological target: CVN-Q, Cyanovirin-N Q^50C (Q50C) mutant (Nostoc ellipsosporum, UniProt P81180, Q50C); settings: cited from earlier work
[17] = biological target: CVN-M, Cyanovirin-N Mut^DB (CV-N^MutDB) mutant (Nostoc ellipsosporum, UniProt P81180); settings: reported association constants, cited from earlier work
[18] = biological target: Con A, Concanavalin A (Canavalia ensiformis, UniProt P02866); settings: reported solution association constants, cited from earlier work
[19] = biological target: CVN (Cyanovirin-N mutants); settings: cited from earlier work
[20] = unknown protein u3 (predicted class Con A)
[21] = unknown protein u4 (predicted class Con A)
[22] = unknown protein u1 (predicted class SBA)
[23] = unknown protein u2 (predicted class SBA)
[24] = unknown protein u6 (predicted class SBA)
[25] = unknown protein u7 (predicted class SBA)

CC(=O)N[C@H]1C(O)O[C@H](CO)[C@H](O)[C@@H]1O (stereo partly drawn) [GalNAc]
Association constant Ka with SBA [1]: 1.51e+06 M⁻¹
Association constant Ka with PNA [2]: 2430 M⁻¹
Association constant Ka with DBA [3]: 4200 M⁻¹
Association constant Ka with RCA [4]: 48400 M⁻¹

Lactose
SPR shift, training matrix [5]: 6.2 and 5.1 and 7.9
SPR shift, training matrix [6]: 3.7 and 2 and 2.4
SPR shift, training matrix [7]: 1.5 and 3.7 and 1.1
Unknown SPR shift, weak binders [8]: 2.5
Unknown SPR shift, weak binders [9, 20]: 5.5
Unknown SPR shift, weak binders [9, 21]: 5.7
Unknown SPR shift, weak binders [10, 22]: 1.6
Unknown SPR shift, weak binders [10, 23]: 1.1
Unknown SPR shift, weak binders [10, 24]: 1.6
Unknown SPR shift, weak binders [10, 25]: 1.1

CC(=O)N[C@H]1C(O)O[C@H](CO)[C@H](O)[C@@H]1O (stereo partly drawn) [GalNAc, N-acetylgalactosamine]
Ka [11]: 2430 M⁻¹
Ka [12]: 187000 M⁻¹
Ka [13]: ~10^3 M^−1
Ka [14]: 48400 M⁻¹

O=C(O)c1cc(N=C=S)ccc1-c1c2ccc(=O)cc-2oc2cc(O)ccc12 [FITC, fluorescein isothiocyanate]
fluorescence intensity after UV irradiation [15]: about 50%

Arabinose
SPR shift, training matrix [5]: 1.9 and 0.8 and 1.1
SPR shift, training matrix [6]: 2.1 and 1.8 and 1.6
SPR shift, training matrix [7]: 5.1 and 5.9 and 4.5
Unknown SPR shift, weak binders [8]: 1.9
Unknown SPR shift, weak binders [9, 20]: 1.1
Unknown SPR shift, weak binders [9, 21]: 1
Unknown SPR shift, weak binders [10, 22]: 4.5
Unknown SPR shift, weak binders [10, 23]: 5
Unknown SPR shift, weak binders [10, 24]: 4.5
Unknown SPR shift, weak binders [10, 25]: 4.5

OC[C@H]1OC(O)[C@H](O)[C@@H](O)[C@H]1O (stereo partly drawn) [Gal, D-(+)-galactose]
Ka [11]: ~10^3 M^−1
Ka [14]: ~10^3 M^−1

OC[C@H]1O[C@H](O[C@@H]2[C@@H](O[C@@H]3C(O)O[C@H](CO)[C@@H](O)[C@@H]3O)O[C@H](CO)[C@@H](O)[C@@H]2O)[C@@H](O)[C@@H](O)[C@@H]1O (stereo partly drawn) [2α,2α-Man3, α-1,2-α-1,2-mannotriose]
Ka ([16]; Domain A): 2.94 × 10^5 (Domain A); M^−1
Ka ([16]; Domain B): 2.33 × 10^4 (Domain B) M^−1
Ka [17]: 294000 M⁻¹
Ka ([17]; listed as 2α, 2α-Man3): 294000 M⁻¹
Ka [18]: 379000 M⁻¹
Ka ([18]; listed as 2α, 2α-Man3): 379000 M⁻¹
Ka ([18]; listed as Man3): 10^5-10^6 M^−1
Ka [19]: 10^5-10^6 M^−1
